# Values quoted from earlier work as cited in article PMC3461162 (British Journal of Cancer, 2012).
# Conditions: phase I, currently being investigated; no reference given; cited from earlier work
smiles,measurement,value
CNC(=O)c1cccc(-c2ccc3c(N4CCOC[C@@H]4C)nc(N4CCOC[C@@H]4C)nc3n2)c1 [AZD2014],Rise in transaminases,no rise in transaminases has been reported
